Reference: the supplement of paper PMC12420376

Key:
OVCAR8 = test: drug sensitivity score (DSS2) on cancer cell count; higher = more sensitive; extreme values may be limits of the assay; settings: 72 h
Method in brief: (§1)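 Cancer cell counts came from 10× images (4 fields) of fixed cells immunostained for CK8/18 with Hoechst. The ovarian cancer cells had been grown alone or in 1:1 direct co-culture with lung or skin fibroblasts on 384-well plates pre-spotted acoustically with 528 approved and investigational compounds at 5 concentrations, then treated for 72 h. Breeze was used to derive a drug sensitivity score from logistic fits of the data.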

KURAMOCHI = test: as above; settings: 72 h
Method in brief: as §1

[1] = co-cultured fibroblast: BJHTERT
[2] = co-cultured fibroblast: none (monoculture)

| SMILES | drug sensitivity score (OVCAR8; [1]) | drug sensitivity score (OVCAR8; co-cultured fibroblast: WI38) | drug sensitivity score (OVCAR8; [2]) | drug sensitivity score (KURAMOCHI; [1]) | drug sensitivity score (KURAMOCHI; co-cultured fibroblast: WI38) | drug sensitivity score (KURAMOCHI; [2]) |
| --- | --- | --- | --- | --- | --- | --- |
| CN1CCN(c2ccc(C(=O)Nc3n[nH]c4ccc(Cc5cc(F)cc(F)c5)cc34)c(NC3CCOCC3)c2)CC1 [Entrectinib] | 0 DSS | 4 DSS | 0 DSS | 2.1 DSS | 0.3 DSS | 1.4 DSS |
| CNC(=O)c1ccc(N2C(=S)N(c3ccc(C#N)c(C(F)(F)F)c3)C(=O)C2(C)C)cc1F [Enzalutamide] | 0 DSS | 0 DSS | 2.2 DSS | 0 DSS | 0 DSS | 1.3 DSS |
| Cn1cc(C2=C(c3cn(C4CCN(Cc5ccccn5)CC4)c4ccccc34)C(=O)NC2=O)c2ccccc21 [Enzastaurin] | 0 DSS | 6.4 DSS | 0 DSS | 0 DSS | 0.6 DSS | 0 DSS |
| NS(=O)(=O)NCCNc1nonc1/C(=N/O)Nc1ccc(F)c(Br)c1 [Epacadostat] | 0 DSS | 0 DSS | 0.6 DSS | 0 DSS | 0 DSS | 0 DSS |
| COc1cccc2c1C(=O)c1c(O)c3c(c(O)c1C2=O)C[C@@](O)(C(=O)CO)C[C@@H]3O[C@H]1C[C@H](N)[C@@H](O)[C@H](C)O1 [Epirubicin] | 14.7 DSS | 9 DSS | 12.3 DSS | 12.2 DSS | 12.7 DSS | 19.2 DSS |
| CCOc1ccccc1-n1c(C(C)N2CCN(C(=O)COc3ccc(Cl)cc3)CC2)nc2ccccc2c1=O (centres undefined) [Erastin] | 17.9 DSS | 18.6 DSS | 7.4 DSS | 3.6 DSS | 3.9 DSS | 2.6 DSS |
| COc1cc(OC)cc(N(CCNC(C)C)c2ccc3ncc(-c4cnn(C)c4)nc3c2)c1 [Erdafitinib] | 0 DSS | 0 DSS | 0 DSS | 0 DSS | 0 DSS | 0 DSS |
| C=C1C[C@@H]2CC[C@@]34C[C@H]5O[C@H]6[C@@H](O3)[C@H]3O[C@H](CC[C@@H]3O[C@H]6[C@H]5O4)CC(=O)C[C@@H]3[C@@H](OC)[C@@H](C[C@H](O)CN)O[C@H]3C[C@H]3O[C@@H](CC[C@@H]1O2)C[C@@H](C)C3=C [Eribulin] | 27.5 DSS | 29.9 DSS | 26.6 DSS | 28.8 DSS | 26.9 DSS | 27.5 DSS |
| C#Cc1cccc(Nc2ncnc3cc(OCCOC)c(OCCOC)cc23)c1 [Erlotinib] | 3.1 DSS | 0 DSS | 5 DSS | 1.1 DSS | 2.6 DSS | 0.4 DSS |
| COc1cc([C@@H]2c3cc4c(cc3[C@@H](O[C@@H]3O[C@@H]5CO[C@@H](C)O[C@H]5[C@H](O)[C@H]3O)[C@H]3COC(=O)[C@H]23)OCO4)cc(OC)c1O [Etoposide] | 11.8 DSS | 13.1 DSS | 13.9 DSS | 11.7 DSS | 13.8 DSS | 16.1 DSS |
| CO[C@H]1C[C@@H]2CC[C@@H](C)[C@@](O)(O2)C(=O)C(=O)N2CCCC[C@H]2C(=O)O[C@H]([C@H](C)C[C@@H]2CC[C@@H](OCCO)[C@H](OC)C2)CC(=O)[C@H](C)/C=C(\C)[C@@H](O)[C@@H](OC)C(=O)[C@H](C)C[C@H](C)/C=C/C=C/C=C/1C [Everolimus] | 8.4 DSS | 0 DSS | 2.2 DSS | 5.6 DSS | 5.6 DSS | 0 DSS |
| C=C1C[C@@H]2[C@H](CC[C@]3(C)C(=O)CC[C@@H]23)[C@@]2(C)C=CC(=O)C=C12 [Exemestane] | 1.3 DSS | 0 DSS | 0 DSS | 0 DSS | 0 DSS | 0 DSS |
| CCn1c(=O)c(-c2ccc(Cl)cc2Cl)cc2cnc(Nc3ccc(N4CCNCC4)c(F)c3)nc21 [FRAX486] | 5.8 DSS | 9.8 DSS | 13.1 DSS | 9.7 DSS | 4.9 DSS | 9.2 DSS |
| Cc1cnc(Nc2ccc(OCCN3CCCC3)cc2)nc1Nc1cccc(S(=O)(=O)NC(C)(C)C)c1 [Fedratinib] | 4.9 DSS | 5.2 DSS | 7.2 DSS | 7.9 DSS | 3.7 DSS | 2.8 DSS |
| CON(C)C(=O)N1N=C(c2cc(F)ccc2F)S[C@@]1(CCCN)c1ccccc1 [Filanesib] | 21.9 DSS | 32.9 DSS | 29.3 DSS | 21.4 DSS | 22.4 DSS | 16.2 DSS |
| O=C(Nc1nc2cccc(-c3ccc(CN4CCS(=O)(=O)CC4)cc3)n2n1)C1CC1 [Filgotinib] | 2.9 DSS | 1.3 DSS | 1.7 DSS | 5.1 DSS | 5.2 DSS | 2.4 DSS |
| CC(C)(C)NC(=O)[C@H]1CC[C@H]2[C@@H]3CC[C@H]4NC(=O)C=C[C@]4(C)[C@H]3CC[C@]12C [Finasteride] | 2.1 DSS | 0 DSS | 0 DSS | 0 DSS | 0 DSS | 0 DSS |
| O=c1[nH]c(=O)n([C@H]2C[C@H](O)[C@@H](CO)O2)cc1F [Floxuridine] | 18.7 DSS | 17.9 DSS | 26.7 DSS | 19.9 DSS | 19 DSS | 20.7 DSS |
| Nc1nc(F)nc2c1ncn2[C@@H]1O[C@H](CO)[C@@H](O)[C@@H]1O [Fludarabine] | 8 DSS | 8.5 DSS | 13.4 DSS | 0.3 DSS | 4.5 DSS | 0 DSS |
